The test system of one series is Plasma. Kind of series: Drug recovery in Rattus norvegicus (rat) plasma at 50 ng/ml by LLE method. Format: ADME, cell-free.
Series [1] in a line: Stability of the compound in Rattus norvegicus (rat) plasma at 1000 ng/ml after 2 months at -80 degC. The format is ADME, cell-free. Conditions: read-out: Stability.
Series [2] can be described thus: Stability of the compound in Rattus norvegicus (rat) plasma at 62.5 ng/ml after 2 months at -80 degC. The format is ADME, cell-free. Conditions: read-out: Stability.
Series [3] is described as follows: Stability of the compound in Rattus norvegicus (rat) plasma at 1000 ng/ml after three 24 hr cycles of freeze-thaw on storing at -80 degC. The format is ADME, cell-free. Conditions: read-out: Stability.
A short description of series [4]: Stability of the compound in Rattus norvegicus (rat) plasma at 62.5 ng/ml after three 24 hr cycles of freeze-thaw on storing at -80 degC. The format is ADME, cell-free. Conditions: read-out: Stability.
Series [5] can be described thus: Stability of the compound in Rattus norvegicus (rat) plasma at 7.8 ng/ml after three 24 hr cycles of freeze-thaw on storing at -80 degC. Format: ADME, cell-free. Conditions: read-out: Stability.
A short description of series [6]: Stability of the compound in Rattus norvegicus (rat) plasma at 7.8 ng/ml after 2 months at -80 degC. The format is ADME, cell-free. Conditions: read-out: Stability.
Series [7] can be described thus: Mean residence time in Rattus norvegicus Sprague-Dawley (rat) at 10 mg/kg, po. Conditions: in vivo. The format is ADME, organism-based. Details: dose 10 mg/kg, route oral.
Series [8] can be described thus: Tmax in Rattus norvegicus Sprague-Dawley (rat) at 10 mg/kg, po. The format is ADME, organism-based. Details: dose 10 mg/kg, route oral. Conditions: in vivo.
Series [9] in a line: Half life in Rattus norvegicus Sprague-Dawley (rat) at 10 mg/kg, po. The format is ADME, organism-based. Details: dose 10 mg/kg, route oral. Conditions: in vivo.
The nature of series [10]: AUC (0 to alpha) in Rattus norvegicus Sprague-Dawley (rat) at 10 mg/kg, po. Details: dose 10 mg/kg, route oral. The format is ADME, organism-based. Conditions: plasma.
Series [11] can be described thus: Cmax in Rattus norvegicus Sprague-Dawley (rat) at 10 mg/kg, po. The format is ADME, organism-based. Details: dose 10 mg/kg, route oral. Conditions: in vivo.

Structures are written as SMILES.

Consider `Oc1ccc([C@H]2COc3cc(O)ccc3C2)cc1` [AUS-131], for which the Drug recovery with Plasma was 76.5%. Further, the remaining at 1461 h, 1000 ng/ml in series [1] turned out to be 95.6%. In series [2], the remaining at 1461 h, 62.5 ng/ml worked out at 103%. For the same compound, the remaining at 24 h, 1000 ng/ml in series [3] turned out to be 91.8%. Further, in series [4], the remaining at 24 h, 62.5 ng/ml is 94.6%. Moreover, the remaining at 24 h, 7.8 ng/ml in series [5] worked out at 93.9%. Also, in [6], the remaining at 1461 h, 7.8 ng/ml was found to be 100%.
In the series on Plasma, `O=c1c(-c2ccccc2)coc2cc(O)ccc12` [7-HYDROXY ISOFLAVONE] showed a Drug recovery of 85.3%.
In series [7], `COc1ccc(-c2coc3cc(O)ccc3c2=O)cc1OC` [CLADRIN] displayed an MRT of 10.8 h. Further, in [8], the Tmax stood at 0.5 h. The same compound gave a half-life in series [9] of 4.1 h. This compound had a Drug recovery in the series on Plasma of 83.5%. In addition, in [1], the remaining at 1461 h, 1000 ng/ml came to 81.4%. Moreover, in series [2], the remaining at 1461 h, 62.5 ng/ml was determined as 84.5%. This compound returned an AUC in [10] of 609 ng·h/mL. For the same compound, the remaining at 24 h, 1000 ng/ml in series [3] amounted to 88.2%. In addition, the Cmax in series [11] stood at 44.8 ng/mL. For the same compound, the remaining at 24 h, 62.5 ng/ml in [4] amounted to 98.5%. In series [5], the remaining at 24 h, 7.8 ng/ml was found to be 93.6%. Also, the remaining at 1461 h, 7.8 ng/ml in series [6] worked out at 106%.

For the origin of these results see ChEMBL document CHEMBL3045906, “LCMS/MS method for simultaneous analysis of cladrin and equol in rat plasma and its application in pharmacokinetics study of cladrin” (Med Chem Res, 2011).
